Test results taken from patent publication US8173694B2, “Therapeutic agent” (Pentraxin Therapeutics Limited, priority 2001, dated 2012).
“Also recorded” adds a separate entry of the source.

Key:
SAP in whole human serum = target: T1, SAP in whole human serum (Homo sapiens, UniProt P02743); assay: Size exclusion chromatography of whole human serum mixed with drug: SAP; type: binding
T1 construct: Aliquots of a single pool of whole normal human serum, containing SAP and CRP; from tissue; host or cells: pooled whole normal human serum
T1 sequence (P02743 20-223): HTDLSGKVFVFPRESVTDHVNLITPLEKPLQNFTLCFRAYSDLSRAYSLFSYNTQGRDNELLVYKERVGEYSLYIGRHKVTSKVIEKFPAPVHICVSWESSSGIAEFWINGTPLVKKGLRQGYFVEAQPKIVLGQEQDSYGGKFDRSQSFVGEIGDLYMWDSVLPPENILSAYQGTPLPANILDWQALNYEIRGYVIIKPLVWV
Method: Aliquots of a single pool of whole normal human serum, containing SAP and CRP, were mixed with (R)-1-[6-(R)-2-Carboxy-pyrrolidin-1-yl]-6-oxo-hexanoyl]pyrrolidine-2-carboxylic acid at the molar ratios shown, with respect to pentraxin protomer, and analysed by size exclusion chromatography precisely as described previously (14). The mixtures and the column eluants contained either no calcium ions or 2 mM calcium, and the concentrations of drug appropriate to maintain the molar ratios indicated above. SAP in whole serum is a stable soluble pentameric assembly of protomers, stabilised by the presence of the normal high concentration of serum albumin. However as SAP is separated from serum albumin during gel filtration with a calcium containing eluant, the SAP autoaggregates and elutes entirely as high molecular weight polymers in the void volume of the column. This is because, in the absence of a specific ligand to which it can bind, isolated human SAP is insoluble in the presence of calcium (14). However in the absence of calcium, where no ligand binding or autoaggregation can occur, SAP forms stable decamers, providing an excellent marker for the elution volume of this molecular assembly (14). Human CRP is a stable pentamer either in the presence or absence of calcium and thus provides a robust marker for the elution position of that molecular form (14).

125I-labelled human SAP = target: T2, 125I-labelled human SAP (Homo sapiens, UniProt P02743); assay: Human SAP tracer in amyloid deposits of mice with AA amyloidosis; type: in vivo, mouse
T2 construct: intravenous injection of ^125I-labelled pure human or mouse SAP at time zero
T2 sequence (P02743 20-223): as above
Method: (§1) Clearance from the amyloid deposits, catabolism and excretion of the human SAP tracer were monitored globally by whole body counting of the mice (left), and the total amount of mouse SAP in the amyloidotic organs was determined after killing the animals on day 5 (right). […] Immediately after the 15 minute bleed, two groups, one that had received human SAP and the other mouse SAP, received a single intraperitoneal injection of 5 mg of (R)-1-[6-(R)-2-Carboxy-pyrrolidin-1-yl]-6-oxo-hexanoyl]pyrrolidine-2-carboxylic acid (desapin). Tracer remaining in the circulation is expressed as the mean (SD) percentage of the amount at the 15 minute time point for each group. […] In one of each of the pairs of groups receiving mouse or human SAP respectively, the tracer had been mixed with (R)-1-[6-(R)-2-Carboxy-pyrrolidin-1-yl]-6-oxo-hexanoyl]pyrrolidine-2-carboxylic acid (desapin) and incubated in vitro before injection into the animals. Tracer remaining in the circulation is expressed as mean (SD) total radioactivity per gram of blood in each group. Bottom panel: effect of administration of (R)-1-[6-(R)-2-Carboxy-pyrrolidin-1-yl]-6-oxo-hexanoyl]pyrrolidine-2-carboxylic acid (desapin) in the drinking water at the concentrations shown, on circulating human SAP values in human SAP transgenic mice. Mice of approximately 20 g body weight consume about 3 ml water per day.
When (R)-1-[6-(R)-2-Carboxy-pyrrolidin-1-yl]-6-oxo-hexanoyl]pyrrolidine-2-carboxylic acid was administered by continuous infusion for 5 days via an indwelling osmotic pump, it dissociated both radiolabelled human SAP tracer, with which the amyloid deposits had previously been loaded, and all the endogenous mouse SAP in the deposits (FIG. 3). […] The SAP-(R)-1-[6-(R)-2-Carboxy-pyrrolidin-1-yl]-6-oxo-hexanoyl]pyrrolidine-2-carboxylic acid complex is evidently recognised as abnormal in vivo and swiftly removed from the circulation, but is apparently formed and/or cleared less efficiently in vivo with mouse SAP compared to human SAP.

mouse SAP = target: T3, mouse SAP (Mus musculus, UniProt P12246); assay: Endogenous mouse SAP in amyloid deposits of mice with AA amyloidosis; type: in vivo
T3 construct: all the endogenous mouse SAP in the deposits; from tissue; host or cells: mice in vivo: amyloidotic organs, or plasma of normal wild type mice
T3 sequence (P12246 21-224): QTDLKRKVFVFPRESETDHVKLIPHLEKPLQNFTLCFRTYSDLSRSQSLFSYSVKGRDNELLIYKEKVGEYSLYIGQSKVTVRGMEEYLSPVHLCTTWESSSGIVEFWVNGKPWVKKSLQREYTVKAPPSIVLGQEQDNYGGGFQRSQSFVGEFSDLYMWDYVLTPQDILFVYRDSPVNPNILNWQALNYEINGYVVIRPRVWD
Method: as §1, with “day. […]” for “day.”

123I-SAP = 123I-SAP (Homo sapiens, UniProt P02743); assay: Quantitative whole body 123I-SAP scintigraphy in patients during drug infusion; type: in vivo
123I-SAP, sequence (P02743 20-223): as the sequence (P02743 20-223) above
Text: This patient, with a modest load of AL amyloid in the spleen and kidneys, had notable blood pool background of tracer in the heart and circulation before administration of the drug.
This patient, with modest load of AL amyloid in the spleen and kidneys, had notable blood pool background of tracer in the heart and circulation before administration of the drug.
Direct evidence for depletion of SAP from amyloid in the organs and for the mechanism of action of (R)-1-[6-(R)-2-Carboxy-pyrrolidin-1-yl]-6-oxo-hexanoyl]pyrrolidine-2-carboxylic acid was obtained by quantitative whole body scintigraphy using ^123I-SAP as a tracer. Each patient received a standard dose of ^123I-SAP 24 h before the (R)-1-[6-(R)-2-Carboxy-pyrrolidin-1-yl]-6-oxo-hexanoyl]pyrrolidine-2-carboxylic acid infusion started and was scanned immediately before treatment to provide a baseline image and values for localisation of tracer to the amyloid deposits. They were then scanned at intervals thereafter, up to the end of the 48 h infusion. (R)-1-[6-(R)-2-Carboxy-pyrrolidin-1-yl]-6-oxo-hexanoyl]pyrrolidine-2-carboxylic acid caused dramatic clearance of tracer from the plasma, exactly paralleling both in the scintigraphic images and in counting of blood samples, the SAP depletion monitored by immunoassay of the serum. […] At the same time there was a marked decrease in the retention of tracer in amyloid deposits elsewhere, exemplified by the spleen and kidneys, in contrast to the usual situation in control untreated amyloidosis patients (Table 2; FIG. 6).
All patients had systemic AL amyloidosis and received a standard intravenous tracer dose of ^123I-SAP at time zero. After whole body quantitative scintigraphic imaging at 24 h, uptake in liver and spleen were taken as 100% for each individual. Intravenous infusion of the drug (R)-1-[6-(R)-2-Carboxy-pyrrolidin-1-yl]-6-oxo-hexanoyl]pyrrolidine-2-carboxylic acid was then started and scintigraphy with organ counting was repeated at 48 h. The controls received no treatment. Significance of differences between the two groups was sought by t-test.

SAP = SAP (Homo sapiens, UniProt P02743); assay: Circulating human SAP in human SAP transgenic mice, drug in drinking water; type: in vivo, mouse; set-up: on circulating human SAP values in human SAP transgenic mice; from tissue; host or cells: plasma of human SAP transgenic mice; conditions: drug in the drinking water
SAP, sequence (P02743 20-223): as the sequence (P02743 20-223) above
Method: as §1, with “day. […]” for “day.”

[1] = drug:protein 100:1, calcium present
[2] = continuous infusion for 5 days via osmotic pump
[3] = 24 h after starting infusion, second patient
[4] = 48 h after starting infusion, second patient
[5] = 48 h after tracer injection (drug infusion started at 24 h), 24 h uptake = 100%, 7 patients

Molecular assembly (SAP in whole human serum; drug:protein 10:1, calcium present): High MW; also recorded: Decamer | Elution volume (SAP in whole human serum; [1]): 10.0 to 10.5 mL | Dissociation of human SAP from amyloid deposits (125I-labelled human SAP; 50 μg/kg/day, continuous infusion): significantly dissociated | Dissociation of radiolabelled human SAP tracer from amyloid deposits (125I-labelled human SAP; [2]): dissociated | Uptake of radiolabelled human SAP tracer into mouse AA amyloid deposits (125I-labelled human SAP; intermittent intraperitoneal or subcutaneous injection): inhibited uptake | Removal of endogenous mouse SAP from amyloid deposits (mouse SAP; 15 mg/kg/day, continuous infusion): removed all the mouse SAP | Dose required to dissociate any endogenous mouse SAP significantly (mouse SAP; [2]): 1.5 mg/kg/day | Blood pool background of 123I-SAP tracer (123I-SAP; 6 h after starting infusion, first patient): completely absent | Kidney counts, of time 0 (123I-SAP; [3]): 77% | Spleen counts, of time 0 (123I-SAP; [3]): 85% | Blood pool background of 123I-SAP tracer (123I-SAP; 24 h and 48 h after starting infusion, second patient): completely absent | Kidney counts, of time 0 (123I-SAP; [4]): 50% | Spleen counts, of time 0 (123I-SAP; [4]): 54% | 123I-SAP retention [mean (SD)%], Liver (123I-SAP; [5]): 125 (20) % | 123I-SAP retention [mean (SD)%], Spleen (123I-SAP; [5]): 54 (18) % | Blood pool signal of 123I-SAP tracer (123I-SAP; by 6 h after starting treatment and persisting thereafter): virtually disappeared | Circulating human SAP (SAP): rapidly depleted
Structure (SMILES): O=C(O)[C@H]1CCCN1C(=O)CCCCC(=O)N1CCC[C@@H]1C(=O)O [(R)-1-[6-(R)-2-Carboxy-pyrrolidin-1-yl]-6-oxo-hexanoyl]pyrrolidine-2-carboxylic acid]
Molecular assembly (SAP in whole human serum; drug:protein 1:1, calcium present): some of the SAP was solubilised as stable drug-decamer complexes; also recorded: High MW | Molecular assembly (SAP in whole human serum; [1]): all the SAP was in this form; also recorded: Decamer
